In PubChem BioAssay (NCI) one finds TGI and GI50 data, which are given here for eight molecules.

Experiment in all cases: DTP human tumour cell line panel, 48 h
Experiment [1] has as its system HCT-116 colon.
Experiment [2] has as its system SK-MEL-2 melanoma.
Experiment [3] deals with IGROV1 ovarian.
For experiment [4], the system named is NCI-H460 lung.
In experiment [5] the test system is HS 578T breast.
Experiment [6] deals with NCI/ADR-RES ovarian.
Experiment [7] has as its system RXF 393 renal.
The subject of experiment [8] is NCI-H23 lung.
Experiment [9] concerns A498 renal.
Experiment [10] deals with OVCAR-5 ovarian.

Molecules are shown by their SMILES.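 96-well plates; 48 h exposure; 5 concentrations. Endpoints by linear interpolation between flanking doses. Not reached: highest tested concentration assigned. GI50 marks 50% less growth. The concentration for full growth arrest is given as TGI.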 A value given as a limit tells only on which side of the number the result lay.

The TGI is the concentration giving total growth inhibition. A high value points to lower sensitivity of the cells. One may read the GI50 as the concentration that inhibits growth by half.

For the molecule `CN(C)c1ccc(/C=C/c2ccnc3ccc4ccccc4c23)cc1`, the TGI in experiment [1] was over 100 µM; in experiment [2] it was over 100 µM; in experiment [3], 45.8 µM; in [4], over 100 µM; in experiment [5], over 100 µM; in experiment [6] it was over 100 µM. Besides, the TGI in experiment [7] was 44.9 µM; in experiment [8], over 100 µM; in experiment [9], 69.1 µM.
For `COc1cc(-c2cc(-c3nc4cc(Cl)c(Cl)cc4[nH]3)[nH]n2)cc(OC)c1OC`, the GI50 in experiment [1] was 2.78 µM; in experiment [3], 3.86 µM; in experiment [4], 3.33 µM; in [5], 4.53 µM; in experiment [6], 3.25 µM; in [7] it was 3.17 µM. Further, the GI50 is 3.4 µM in experiment [8], 7.08 µM in [10] and 4.21 µM in experiment [9]. The TGI in experiment [1] was 10.3 µM; in experiment [3], 18.2 µM; in experiment [4] it was 12.9 µM; in experiment [5] it was over 100 µM; in [6] it was over 100 µM; in experiment [7] it was 13.5 µM. Besides, the TGI in experiment [8] is 13 µM; in experiment [10], 21.6 µM; in [9] it was 28.3 µM.
Turning to `CCOC(=O)/C(=C/c1ccccc1)C(=O)c1ccccc1`, the GI50 in experiment [1] was 2.04 µM; in [3], 2.86 µM; in [4], 3.27 µM; in [5] it was 3.03 µM; in [6], 3.6 µM; in [7] it was 2.04 µM. Besides, the GI50 in experiment [8] is 3.75 µM; in experiment [10], 4.05 µM; in experiment [9], 3.08 µM. For the same molecule, the TGI stood at 4.39 µM in experiment [1]; 8.05 µM in [3]; 10.9 µM in [4]; 18.8 µM in experiment [5]; 70 µM in [6]; 3.92 µM in experiment [7]. Also, the TGI came out at 16.5 µM in [8], 16.9 µM in [10] and 13.1 µM in experiment [9].
As for `COc1cc(-c2nc(-c3nnc(-c4ccc(F)c(Cl)c4)o3)c3ccccn23)cc(OC)c1OC`, the GI50 in [2] was 2.27 µM; in [3], 3.61 µM; in experiment [5], 2.51 µM; in experiment [6] it was 1.88 µM; in [7] it was 2.62 µM; in experiment [8], 4 µM. In addition, the values for the GI50 in experiment [10] and in experiment [9] were 4.57 µM and 1.55 µM, respectively. The TGI is 5.59 µM in experiment [2]; over 100 µM in experiment [3]; 29.2 µM in experiment [5]; 5.24 µM in experiment [6]; 7 µM in experiment [7]; over 100 µM in [8]. Besides, the values for the TGI in experiment [10] and in experiment [9] were over 100 µM and 6.76 µM, respectively.
Consider `C=CCC(N[C@@H](CO)c1ccccc1)c1ccccn1` (stereo partly drawn), for which the GI50 in [1], in experiment [2], in experiment [3], in experiment [5], in experiment [6] and in [7] was over 100 µM throughout. The GI50 in experiment [8] was 60.2 µM; in [10] it was over 100 µM; in [9] it was 46.8 µM. The TGI in [1], in experiment [2], in experiment [3], in experiment [5], in [6] and in experiment [7] was over 100 µM throughout. The TGI in [8], in experiment [10] and in experiment [9] was over 100 µM each time.
With `O=[N+]([O-])c1cccc(/C=C/c2ccccn2)c1`, the GI50 is 7.02 µM in experiment [1]; 28 µM in experiment [3]; 34.5 µM in experiment [4]; 32.7 µM in experiment [5]; 22.9 µM in experiment [6]; 8.6 µM in experiment [7]. Further, the GI50 in [8] was 30 µM; in experiment [10], 49.7 µM; in [9], 7.19 µM. The TGI in experiment [1], in [3], in experiment [4], in experiment [5], in experiment [6] and in experiment [7] was over 100 µM each time. Moreover, the TGI in experiment [8], in [10] and in experiment [9] was over 100 µM each time.
With `CC(C)(C)CC(C)(C)N(CSc1ccc(Cl)cc1)CSc1ccc(Cl)cc1`, the GI50 in experiment [1] was 1.42 µM; in [2], 2.54 µM; in experiment [3], 0.745 µM; in [4], 0.829 µM; in [5] it was 1.72 µM; in experiment [6], 2.42 µM. The GI50 is 1.87 µM in experiment [7], 2.19 µM in experiment [10] and 0.207 µM in [9]. The TGI was 5.85 µM in experiment [1]; 6.28 µM in experiment [2]; 2.7 µM in experiment [3]; 8.38 µM in experiment [4]; over 100 µM in experiment [5]; over 100 µM in experiment [6]. Also, the TGI in [7] amounted to 7.06 µM; in experiment [10], 6.26 µM; in experiment [9], 0.863 µM.
As for `O=S(=O)(CC#CCCCOCC#Cc1ccccc1C#CCS(=O)(=O)c1ccccc1)c1ccccc1`, the GI50 in [1] is 16.2 µM; in experiment [2] it was 23 µM; in experiment [3], 11.8 µM; in [4], 31.2 µM; in [5] it was 35.2 µM; in experiment [6], 20.6 µM. Besides, the GI50 is 15.5 µM in experiment [8], 24.8 µM in [10] and over 100 µM in experiment [9]. Further, the TGI in experiment [1] was 29.7 µM; in experiment [2], 47.9 µM; in experiment [3] it was 25.7 µM; in [4], over 100 µM; in experiment [5] it was over 100 µM; in experiment [6] it was 44.1 µM. The figures for the TGI in experiment [8], in experiment [10] and in experiment [9] were 44.8 µM, 55.3 µM and over 100 µM, respectively.
